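Method: 48-hour compound exposure of cells in 96-well plates, five concentrations, linear interpolation of endpoints. GI50 = concentration required for 50% inhibition of growth.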 Calls of active or inactive are those of the source. No stated cut-off is given here; in the data, active = GI50 up to about 1.1 µM and inactive = higher.
Legend:
Assay in all cases: NCI tumour cell line growth inhibition, 48 h
ACHN = test system: ACHN
CAKI-1 = test system: CAKI-1
DU-145 = test system: DU-145
HCT-15 = test system: HCT-15
HOP-92 = test system: HOP-92
IGROV-1 = test system: IGROV-1
MDA-MB-435 = test system: MDA-MB-435
MDA-N = test system: MDA-N
NCI-H522 = test system: NCI-H522
OVCAR-3 = test system: OVCAR-3
PC-3 = test system: PC-3
SF-295 = test system: SF-295
SN12C = test system: SN12C
SNB-19 = test system: SNB-19
SNB-75 = test system: SNB-75
SW-620 = test system: SW-620
TK-10 = test system: TK-10
UACC-62 = test system: UACC-62
RPMI-8226 = test system: RPMI-8226
SR = test system: SR

`COc1cc2oc(-c3ccc4c(c3)OCO4)c(OC)c(=O)c2c(OC)c1OC` was tested, and the GI50 (ACHN) was 59.4 µM (inactive), the GI50 (CAKI-1) was 19.1 µM (inactive) and the GI50 (DU-145) was > 100 µM (inactive). The GI50 (HCT-15) was greater than 100 µM, the GI50 (HOP-92) was 1.35 µM (inactive) and the GI50 (IGROV-1) was 67.9 µM (inactive). For the same compound, the GI50 (MDA-MB-435) was > 100 µM (inactive), the GI50 (MDA-N) was > 100 µM (inactive) and the GI50 (NCI-H522) was > 100 µM (inactive). The GI50 (OVCAR-3) was > 100 µM (inactive), the GI50 (PC-3) was > 100 µM (inactive) and the GI50 (SF-295) was > 100 µM (inactive). For the same compound, the GI50 (SN12C) was > 100 µM (inactive), the GI50 (SNB-19) was 44.3 µM (inactive) and the GI50 (SNB-75) was 27.2 µM (inactive). For the same compound, the GI50 (SW-620) was > 100 µM (inactive), the GI50 (TK-10) was 32.8 µM (inactive) and the GI50 (UACC-62) was > 100 µM (inactive).

In the case of `Cn1ccc2c(c1=O)C(=O)OC2(C)C` [CERPEGIN], the GI50 (ACHN) is reported as > 100 µM (inactive), the GI50 (CAKI-1) is reported as > 100 µM (inactive) and the GI50 (DU-145) is reported as > 100 µM (inactive). The GI50 (HCT-15) was greater than 100 µM, the GI50 (IGROV-1) was > 100 µM (inactive) and the GI50 (MDA-N) was > 100 µM (inactive). The GI50 (OVCAR-3) was > 100 µM (inactive), the GI50 (PC-3) was > 100 µM (inactive) and the GI50 (RPMI-8226) was > 100 µM (inactive). The GI50 (SF-295) was > 100 µM (inactive), the GI50 (SN12C) was > 100 µM (inactive) and the GI50 (SNB-19) was 25.5 µM (inactive). The GI50 (SNB-75) was > 100 µM (inactive), the GI50 (SR) was > 100 µM (inactive) and the GI50 (SW-620) was > 100 µM (inactive). The GI50 (TK-10) was > 100 µM (inactive) and the GI50 (UACC-62) was > 100 µM (inactive).

In the case of `CN1C(c2ccccc2)CC(=O)C(N)C1c1ccccc1` (stereo unspecified), the GI50 (ACHN) is reported as 35.9 µM (inactive), the GI50 (CAKI-1) is reported as 28.3 µM (inactive) and the GI50 (HCT-15) is reported as 26.1 µM. For the same compound, the GI50 (HOP-92) was 25.8 µM (inactive), the GI50 (IGROV-1) was 43.5 µM (inactive) and the GI50 (NCI-H522) was 17 µM (inactive). The GI50 (OVCAR-3) was 33.7 µM (inactive), the GI50 (RPMI-8226) was 17.3 µM (inactive) and the GI50 (SF-295) was 48.9 µM (inactive). The GI50 (SN12C) was 34.7 µM (inactive), the GI50 (SNB-19) was 56.9 µM (inactive) and the GI50 (SNB-75) was 63.5 µM (inactive). For the same compound, the GI50 (SR) was 25 µM (inactive), the GI50 (SW-620) was 19.9 µM (inactive) and the GI50 (TK-10) was 43.7 µM (inactive). The GI50 (UACC-62) was 27.2 µM (inactive).

In the case of `COc1ccc(-c2nnc3nc4ccccc4n3c2O)cc1`, the GI50 (ACHN) is reported as > 100 µM (inactive), the GI50 (CAKI-1) is reported as > 100 µM (inactive) and the GI50 (DU-145) is reported as > 100 µM (inactive). The GI50 (HCT-15) was greater than 100 µM, the GI50 (HOP-92) was 54 µM (inactive) and the GI50 (IGROV-1) was > 100 µM (inactive). For the same compound, the GI50 (MDA-MB-435) was > 100 µM (inactive), the GI50 (MDA-N) was > 100 µM (inactive) and the GI50 (NCI-H522) was > 100 µM (inactive). For the same compound, the GI50 (PC-3) was > 100 µM (inactive), the GI50 (SF-295) was 10 µM (inactive) and the GI50 (SN12C) was > 100 µM (inactive). The GI50 (SNB-19) was > 100 µM (inactive), the GI50 (SNB-75) was 41.9 µM (inactive) and the GI50 (SW-620) was > 100 µM (inactive). The GI50 (TK-10) was > 100 µM (inactive).

`CC(C)(C)OC(=O)NC(CSCc1ccc(C(=O)c2ccccc2)cc1)C(=O)N1CCN(CCCCN2c3ccccc3Sc3cc(N=[N+]=[N-])ccc32)CC1` (stereo unspecified) was tested, and the GI50 (ACHN) was > 100 µM (inactive), the GI50 (CAKI-1) was > 100 µM (inactive) and the GI50 (DU-145) was > 100 µM (inactive). The GI50 (HCT-15) was greater than 100 µM, the GI50 (HOP-92) was > 100 µM (inactive) and the GI50 (IGROV-1) was > 100 µM (inactive). The GI50 (MDA-MB-435) was > 100 µM (inactive), the GI50 (MDA-N) was > 100 µM (inactive) and the GI50 (NCI-H522) was > 100 µM (inactive). The GI50 (OVCAR-3) was > 100 µM (inactive), the GI50 (PC-3) was > 100 µM (inactive) and the GI50 (SF-295) was > 100 µM (inactive). The GI50 (SN12C) was > 100 µM (inactive), the GI50 (SNB-19) was > 100 µM (inactive) and the GI50 (SNB-75) was 58.7 µM (inactive). For the same compound, the GI50 (SW-620) was > 100 µM (inactive), the GI50 (TK-10) was > 100 µM (inactive) and the GI50 (UACC-62) was > 100 µM (inactive).

For `N#Cc1ccccc1C#C/C=C\C#Cc1ccccn1`, the GI50 (ACHN) was 29.6 µM (inactive), the GI50 (CAKI-1) was 21.8 µM (inactive) and the GI50 (DU-145) was 28.6 µM (inactive). The GI50 (HCT-15) was 18.8 µM, the GI50 (HOP-92) was 26.9 µM (inactive) and the GI50 (IGROV-1) was 17 µM (inactive). For the same compound, the GI50 (OVCAR-3) was 4.27 µM (inactive), the GI50 (PC-3) was 13.7 µM (inactive) and the GI50 (SF-295) was 20 µM (inactive). For the same compound, the GI50 (SN12C) was 20.4 µM (inactive), the GI50 (SNB-19) was 25.9 µM (inactive) and the GI50 (SNB-75) was 24.8 µM (inactive). The GI50 (SR) was 4.12 µM (inactive), the GI50 (SW-620) was 12.6 µM (inactive) and the GI50 (TK-10) was 30.9 µM (inactive). The GI50 (UACC-62) was 15.3 µM (inactive).

For `O=C(Cc1csc(N/N=C2\C(=O)Nc3ccccc32)n1)Nc1ccccc1`, the GI50 (ACHN) was 21.6 µM (inactive), the GI50 (CAKI-1) was 23.3 µM (inactive) and the GI50 (DU-145) was 24.9 µM (inactive). For the same compound, the GI50 (HCT-15) was 38.5 µM, the GI50 (HOP-92) was 35.7 µM (inactive) and the GI50 (IGROV-1) was 11.9 µM (inactive). For the same compound, the GI50 (MDA-MB-435) was 39.5 µM (inactive), the GI50 (OVCAR-3) was 24.2 µM (inactive) and the GI50 (SF-295) was 28.9 µM (inactive). The GI50 (SN12C) was 36.6 µM (inactive), the GI50 (SNB-19) was 26.9 µM (inactive) and the GI50 (SNB-75) was 28.5 µM (inactive). For the same compound, the GI50 (SW-620) was 33 µM (inactive) and the GI50 (TK-10) was 44.1 µM (inactive).

With `CN(C)CC(=O)N1CCc2c([nH]c3ccccc23)C1c1cccnc1` (stereo unspecified) the GI50 (ACHN) was > 100 µM (inactive), the GI50 (CAKI-1) was > 100 µM (inactive) and the GI50 (HCT-15) was greater than 100 µM. For the same compound, the GI50 (HOP-92) was 26.9 µM (inactive), the GI50 (IGROV-1) was > 100 µM (inactive) and the GI50 (NCI-H522) was > 100 µM (inactive). The GI50 (OVCAR-3) was > 100 µM (inactive), the GI50 (RPMI-8226) was > 100 µM (inactive) and the GI50 (SF-295) was 0.0498 µM (active). The GI50 (SN12C) was > 100 µM (inactive), the GI50 (SNB-19) was > 100 µM (inactive) and the GI50 (SNB-75) was 65 µM (inactive). The GI50 (SR) was > 100 µM (inactive), the GI50 (SW-620) was > 100 µM (inactive) and the GI50 (TK-10) was > 100 µM (inactive). For the same compound, the GI50 (UACC-62) was > 100 µM (inactive).
